Among the data in patent publication US20240270751A1, “Pyrazolopyridinone Compounds” (BeiGene Ltd., priority 2021, published 2024) are IC50 values, retold here.

For one assay, the target named is DGKα (Homo sapiens (Human), UniProt P23743). Put plainly: Biochemical DGK IC50 assay, DGKα ADP-Glo assay. The note with it: 7.5 nM enzyme, 140 μM ATP, 80 μM DAG. Here is the method:
(§1) Enzymatic reactions of DGKζ, DGKα and DGKδ were performed using ADP-Glo assay with lipid micelle substrate. […] Full length DGKα (D21-10BG, SignalChem) and full length DGKδ (D23-10G, SignalChem) were purchased. Lipid micelle was prepared by dissolving DAG (Sigma, 317505-10MG) and PS (Sigma, P7769-100MG) with chloroform which was furtherly removed by rotary evaporation. The resulted product was resuspended in buffer containing 25 mM HEPES pH 7.0, 0.5 mM EDTA and 160 mM Octyl β-D glucopyranoside by vigorous mixing and ultrasonic (IID, Scientz).
(§2) The ranges of compounds final concentration were 1.55˜10000 nM or 23.3˜150000 nM. 3 μL 2× enzyme solution was added to wells.
(In general: In ADP-Glo the light output rises with the ADP produced.)

The next assay has as its target DGKζ (Homo sapiens (Human), UniProt Q13574). The assay is described as follows: Biochemical DGK IC50 assay, DGKζ ADP-Glo assay. The note with it: 0.5 nM enzyme, 140 μM ATP, 80 μM DAG; read-out: DGKζ ADP-Glo assay IC50. Here is the method: as §1, §2
Human His-TEV-DGK-zeta-pFastBac1 and human baculovirus samples was generated using the Bac-to-Bac baculovirus expression system (Invitrogen) according to the manufacturer's protocol. The DNA used for expression of DGK-zeta, have SEQ ID Nos: 1. Baculovirus amplification was achieved using infected SF9 cells at 1:2000 virus/cells ratios, and grown for 96 hours at 27° C. post-transfected.
The expression scaled up for each protein was carried out in the […] from CORNING. 4 L of 3×10^6 cells/mL Sf9 cells (Expression System, Invitrogen) grown in SF900™ II SFM insect medium (Expression System) was infected with virus stock at 1:200 virus/cells ratio, and grown for 48 hours at 27° C. post-transfection. The infected cell culture was harvested by centrifugation at 6000 rpm for 15 min 4° C. in a SORVALL LYNX6000 centrifuge. The cell pellets were stored at −80° C.
Full length human DGKζ produced as described above, was purified from Sf9 baculovirus-infected insect cell paste. The cells were lysed using sonication method, and the lysates were clarified by centrifugation.

DGKζ, sequence (Q13574 other isoform, or with tags, fused parts or gaps): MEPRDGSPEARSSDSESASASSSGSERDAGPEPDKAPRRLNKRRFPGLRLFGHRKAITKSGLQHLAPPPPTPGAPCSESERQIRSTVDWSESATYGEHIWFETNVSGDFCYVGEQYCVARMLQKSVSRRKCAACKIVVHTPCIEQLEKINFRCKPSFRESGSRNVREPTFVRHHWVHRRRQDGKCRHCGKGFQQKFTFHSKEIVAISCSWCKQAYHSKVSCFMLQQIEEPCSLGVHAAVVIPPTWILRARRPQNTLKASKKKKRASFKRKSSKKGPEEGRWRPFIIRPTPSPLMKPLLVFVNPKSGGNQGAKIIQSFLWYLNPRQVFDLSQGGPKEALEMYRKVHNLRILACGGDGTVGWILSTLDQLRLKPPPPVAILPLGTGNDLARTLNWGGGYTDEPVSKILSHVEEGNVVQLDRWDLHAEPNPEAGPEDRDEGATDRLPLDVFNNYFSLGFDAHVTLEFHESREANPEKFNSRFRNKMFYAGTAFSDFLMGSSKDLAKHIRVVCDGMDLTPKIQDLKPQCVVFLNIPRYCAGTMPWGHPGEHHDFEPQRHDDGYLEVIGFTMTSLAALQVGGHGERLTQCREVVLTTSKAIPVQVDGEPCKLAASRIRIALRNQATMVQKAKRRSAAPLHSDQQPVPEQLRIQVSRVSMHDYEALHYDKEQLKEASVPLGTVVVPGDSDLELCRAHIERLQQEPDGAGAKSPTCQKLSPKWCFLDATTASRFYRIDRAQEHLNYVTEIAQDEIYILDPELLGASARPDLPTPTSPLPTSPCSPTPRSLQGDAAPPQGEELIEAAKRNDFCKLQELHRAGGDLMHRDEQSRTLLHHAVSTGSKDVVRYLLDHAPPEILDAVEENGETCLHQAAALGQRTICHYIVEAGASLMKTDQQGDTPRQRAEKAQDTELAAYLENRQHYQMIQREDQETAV
DGKα, sequence (P23743 whole entry): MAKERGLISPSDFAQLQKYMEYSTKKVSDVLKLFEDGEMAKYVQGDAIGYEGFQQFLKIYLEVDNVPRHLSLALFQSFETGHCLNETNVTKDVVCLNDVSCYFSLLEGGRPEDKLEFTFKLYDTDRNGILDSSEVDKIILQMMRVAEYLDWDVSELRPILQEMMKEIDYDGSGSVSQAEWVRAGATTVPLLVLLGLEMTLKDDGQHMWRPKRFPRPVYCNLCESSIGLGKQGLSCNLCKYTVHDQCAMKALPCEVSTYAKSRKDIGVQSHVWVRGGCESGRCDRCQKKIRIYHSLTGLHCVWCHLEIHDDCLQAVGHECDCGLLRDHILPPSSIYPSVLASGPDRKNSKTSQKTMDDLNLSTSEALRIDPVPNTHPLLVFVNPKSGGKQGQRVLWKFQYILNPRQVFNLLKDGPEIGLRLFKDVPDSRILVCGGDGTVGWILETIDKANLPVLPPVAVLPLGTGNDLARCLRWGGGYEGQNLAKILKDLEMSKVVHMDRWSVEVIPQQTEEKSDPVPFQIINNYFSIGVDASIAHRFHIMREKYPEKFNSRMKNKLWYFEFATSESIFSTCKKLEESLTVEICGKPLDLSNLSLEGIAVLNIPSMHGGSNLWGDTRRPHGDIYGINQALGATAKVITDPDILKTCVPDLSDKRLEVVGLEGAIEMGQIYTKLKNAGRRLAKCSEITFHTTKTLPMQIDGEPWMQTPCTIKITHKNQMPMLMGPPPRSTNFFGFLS

With `CC[C@H]1CN(C(C)c2nc3cccnc3n2CC)[C@H](CC)CN1c1cc(=O)n(C)c2cn(CC#N)nc12` (single isomer, unassigned) [Compound A185b], the IC50 against DGKα is 3.99 µM; at DGKζ it was 0.034 µM.
On to `CC[C@H]1CN(C(C)c2ncc(Cl)n2CC)[C@H](CC)CN1c1cc(=O)n(C)c2cn(CC#N)nc12` (single isomer, unassigned) [Compound A187a], for which the IC50 on DGKα is 5.74 µM; at DGKζ, 5.92 µM.
On to `CC[C@H]1CN(C(C)c2ncc(Cl)n2CC)[C@H](CC)CN1c1cc(=O)n(C)c2cn(CC#N)nc12` (single isomer, unassigned) [Compound A187b], for which the IC50 on DGKα worked out at 6.32 µM; at DGKζ, 0.199 µM.
With `CC[C@@H]1CN(c2c(F)c(=O)[nH]c3cn(CC#N)nc23)[C@@H](C)CN1C(C)c1ccc2nccnc2c1` (single isomer, unassigned) [Compound A194a], the IC50 at DGKα is 6.35 µM; on DGKζ it was 0.155 µM.
The corresponding values for `CC[C@H]1CN(C(C)c2ccc(F)cc2C(F)(F)F)[C@H](CC)CN1c1cc(=O)n(C)c2cn(CC#N)nc12` (single isomer, unassigned) [Compound A196a] are > 10 µM and 1.35 µM.
Consider `CC[C@H]1CN(C(C)c2ccc(F)cc2C(F)(F)F)[C@H](CC)CN1c1cc(=O)n(C)c2cn(CC#N)nc12` (single isomer, unassigned) [Compound A196b], for which the IC50 stood at 93.2 µM against DGKα and 0.038 µM at DGKζ.
With `CC[C@H]1CN(C(C)c2ccccc2C(F)(F)F)[C@H](CC)CN1c1cc(=O)n(C)c2cn(CC#N)nc12` (single isomer, unassigned) [Compound A197a], the values for the IC50 against DGKα and on DGKζ were > 10 µM and 2.05 µM, respectively.
As for `CC[C@H]1CN(C(C)c2ccccc2C(F)(F)F)[C@H](CC)CN1c1cc(=O)n(C)c2cn(CC#N)nc12` (single isomer, unassigned) [Compound A197b], the figures for the IC50 against DGKα and at DGKζ were > 10 µM and 0.169 µM, respectively.
For the molecule `C[C@@H](c1ccc2nccnc2c1)N1CCN(c2cc(=O)n(C)c3cn(CC#N)nc23)CC1C(N)=O` (single isomer, unassigned) [Compound A198a], the IC50 on DGKα and at DGKζ was > 10 µM throughout.
Turning to `C[C@H](c1ccc2nccnc2c1)N1CCN(c2cc(=O)n(C)c3cn(CC#N)nc23)CC1C(N)=O` (single isomer, unassigned) [Compound A198b], the IC50 against DGKα and on DGKζ was > 10 µM in each case.
Take `CC[C@H]1CN(C(C)c2ccc(C3CC3)cc2OC)[C@H](CC)CN1c1cc(=O)n(C)c2cn(CC#N)nc12` (single isomer, unassigned) [Compound A199a]: the IC50 against DGKα is > 10 µM; on DGKζ it was 2.46 µM.
The corresponding values for `CC[C@H]1CN(C(C)c2ccc(C3CC3)cc2OC)[C@H](CC)CN1c1cc(=O)n(C)c2cn(CC#N)nc12` (single isomer, unassigned) [Compound A199b] are > 10 µM and 0.803 µM.
In the case of `CC[C@@H]1CN(c2c(C#N)c(=O)[nH]c3cn(CC#N)nc23)[C@@H](C)CN1C(C)c1ccc2nccnc2c1` (single isomer, unassigned) [Compound A200a], the IC50 is 7.08 µM on DGKα and 0.102 µM on DGKζ.
`CC[C@@H]1CN(c2c(C#N)c(=O)[nH]c3cn(CC#N)nc23)[C@@H](C)CN1C(C)c1ccc2nccnc2c1` (single isomer, unassigned) [Compound A200b]: the IC50 was > 10 µM against DGKα and 5.38 µM on DGKζ.
The corresponding values for `CC[C@H]1CN(C(C)c2c(F)cc(F)cc2OC)[C@H](CC)CN1c1cc(=O)n(C)c2cn(CC#N)nc12` (single isomer, unassigned) [Compound A201a] are > 10 µM and 0.043 µM.
Turning to `CC[C@H]1CN(C(C)c2c(F)cc(F)cc2OC)[C@H](CC)CN1c1cc(=O)n(C)c2cn(CC#N)nc12` (single isomer, unassigned) [Compound A201b], the IC50 against DGKα and on DGKζ was > 10 µM throughout.
As to `CC[C@@H]1CN(c2cc(=O)n(C)c3cn(CC#N)nc23)[C@@H](C)CN1C(C)c1ccc(C(F)(F)F)cc1F` (single isomer, unassigned) [Compound A202a], the IC50 against DGKα was determined as 0.7 µM; on DGKζ, 0.176 µM.
On the same counts, the results for `CC[C@@H]1CN(c2cc(=O)n(C)c3cn(CC#N)nc23)[C@@H](C)CN1C(C)c1ccc(C(F)(F)F)cc1F` (single isomer, unassigned) [Compound A202b] are 1.28 µM and 3.03 µM.
On the same counts, the results for `CC[C@H]1CN(C(C)c2nc3cc(C(F)(F)F)ccc3n2CC)[C@H](CC)CN1c1cc(=O)n(C)c2cn(CC#N)nc12` (single isomer, unassigned) [Compound A203a] are > 10 µM and 2.21 µM.
The corresponding values for `CC[C@H]1CN(C(C)c2nc3cc(C(F)(F)F)ccc3n2CC)[C@H](CC)CN1c1cc(=O)n(C)c2cn(CC#N)nc12` (single isomer, unassigned) [Compound A203b] are > 10 µM and 0.233 µM.
On to `CC[C@H]1CN(C(C)c2nc3ccc(C(F)(F)F)cc3n2CC)[C@H](CC)CN1c1cc(=O)n(C)c2cn(CC#N)nc12` (single isomer, unassigned) [Compound A204a], for which the IC50 was > 10 µM against DGKα and 3.29 µM on DGKζ.
As for `CC[C@H]1CN(C(C)c2nc3ccc(C(F)(F)F)cc3n2CC)[C@H](CC)CN1c1cc(=O)n(C)c2cn(CC#N)nc12` (single isomer, unassigned) [Compound A204b], the IC50 is > 10 µM against DGKα and 0.298 µM on DGKζ.
For `CCc1c(C(C)N2C[C@H](CC)N(c3cc(=O)n(C)c4cn(CC#N)nc34)C[C@H]2CC)cnn1C` (single isomer, unassigned) [Compound A213a], the IC50 at DGKα is > 10 µM; on DGKζ, 1.36 µM.
In the case of `CCc1c(C(C)N2C[C@H](CC)N(c3cc(=O)n(C)c4cn(CC#N)nc34)C[C@H]2CC)cnn1C` (single isomer, unassigned) [Compound A213b], the IC50 against DGKα and at DGKζ was > 10 µM each time.
As for `CC[C@H]1CN([C@H](C)c2nc3ncccc3n2CC)[C@H](CC)CN1c1cc(=O)n(C)c2cn(CC#N)nc12` (single isomer, unassigned) [Compound A215a], the IC50 against DGKα and at DGKζ was > 10 µM throughout.
Regarding `CC[C@H]1CN([C@@H](C)c2nc3ncccc3n2CC)[C@H](CC)CN1c1cc(=O)n(C)c2cn(CC#N)nc12` (single isomer, unassigned) [Compound A215b], the IC50 against DGKα was > 10 µM; at DGKζ, 1.14 µM.
In the case of `CC[C@@H]1CN(c2cc(=O)n(C)c3cn(CC#N)nc23)[C@@H](C)CN1C(C)c1ccc(F)cc1C(F)(F)F` (single isomer, unassigned) [Compound A218b], the values for the IC50 against DGKα and at DGKζ were > 10 µM and 3.96 µM, respectively.
In the case of `CC(c1ccc2nccnc2c1)N1C[C@H](C)N(c2nc(=O)n(C)c3cn(CC#N)nc23)C[C@H]1C` (single isomer, unassigned) [Compound A220, 2-(7-((2S,5R)-2,5-dimethyl-4-((S)-1-(quinoxalin-6-yl)ethyl)piperazin-1-yl)-4-methyl-5-oxo-4,5-dihydro-2H-pyrazolo[4,3-d]pyrimidin-2-yl)acetonitrile, or 2-(7-((2S,5R)-2,5-dimethyl-4-((R)-1-(quinoxalin-6-yl)ethyl)piperazin-1-yl)-4-methyl-5-oxo-4,5-dihydro-2H-pyrazolo[4,3-d]pyrimidin-2-yl)acetonitrile], the IC50 at DGKα worked out at 8.69 µM; on DGKζ it was 0.067 µM.
In the case of `CC[C@@H]1CN(c2cc(=O)n(C)c3cn(CC)nc23)[C@@H](C)CN1C(C)c1ccc2nccnc2c1` (single isomer, unassigned) [Compound A221a], the IC50 at DGKα was found to be 1.09 µM; on DGKζ, 0.216 µM.
For `CC[C@@H]1CN(c2cc(=O)n(C)c3cn(CC)nc23)[C@@H](C)CN1C(C)c1ccc2nccnc2c1` (single isomer, unassigned) [Compound A221b], the IC50 against DGKα is 2.37 µM; at DGKζ it was > 10 µM.
Take `CC[C@@H]1CN(c2cc(=O)n(C)c3cn(CC(F)F)nc23)[C@@H](C)CN1C(C)c1ccc2nccnc2c1` (single isomer, unassigned) [Compound A222a]: the figures for the IC50 against DGKα and at DGKζ were 5.25 µM and 0.452 µM, respectively.
Consider `CC[C@@H]1CN(c2cc(=O)n(C)c3cn(CC(F)F)nc23)[C@@H](C)CN1C(C)c1ccc2nccnc2c1` (single isomer, unassigned) [Compound A222b], for which the figures for the IC50 at DGKα and on DGKζ were 7.42 µM and > 10 µM, respectively.
In the case of `CC[C@H]1CN(C(C)c2ccc(F)cc2C#N)[C@H](CC)CN1c1cc(=O)n(C)c2cn(CC#N)nc12` (single isomer, unassigned) [Compound A224a], the concentration for half-maximal inhibition (IC50) on DGKα is 1.09 µM; on DGKζ, 0.122 µM.

The term IC50 denotes the concentration at which inhibition is half-maximal.
